Data taken from patent US20080268492A1, “Methods for Determining Optimal Techniques for Vitrification of Isolated Cells” (THE CURATORS OF THE UNIVERSITY OF MISSOURI, priority 2007, published 2008).
Read-outs that look alike come from different tables or passages of the source.

Columns and labels:
[1] = system: mature (MII) human oocytes
Description: Measurements of oocyte permeability were conducted at different temperatures on an inverted microscope (Leica DMIRB, China). Perfusion of the oocytes was performed as previously described and validated in the laboratory Oocytes were placed in 20 μl drops of Hepes-HTF (Irvine Scientific) with 10% SSS in a petri dish covered with mineral oil (Vitrolife; Englewood, Colo., USA) to prevent evaporation. An initial photograph was taken of the oocyte in order to calculate the initial volume. […] When the perfusate merged with the 20 μl drop of base medium, photographs of the oocytes were taken at regular intervals.
The oocytes were held in place during the experiment using a glass holding pipette (Humagen Holding MPH-MED-30, I.D.-20 μm, O.D.-95˜120 μm) and micromanipulators (#RI MODEL SAS11/2-E, Integra Research Instruments, UK). For temperatures lower than ambient, a 35 mm Petri dish (Falcon 35-1008) was placed in an aluminum chamber that was cooled with circulating liquid via a cooling bath (Fisher model 9109) and pumped through the aluminum chamber using polymer tubing. The bottom of the dish was wrapped in aluminum foil and a square hole was cut in the foil to facilitate viewing the oocyte. This was performed so the dish would fit snugly in the chamber to facilitate heat transfer from the chamber to the dish. The temperature in the cooling bath was set to either −2° C. or +7° C. for the 2 cold temperatures. The actual temperature of the media in the dish was warmer than this due to heat exchange of the fluid as it circulated through the tubing and chamber.
For the third treatment, oocyte permeability was measured at ambient temperature (˜25° C.) where the perfusion took place in a 50 mm Petri dish (Falcon 35-1006) placed on the microscope stage with no heating or cooling. Finally, the warmest temperature was attained in a similar fashion but the temperature of the media was raised by using a microscope stage warmer set to 39° C. Variations in temperature of the media occurred due to day-to-day fluctuations in temperature in the laboratory. However, the actual temperature of the media for each replicate during the experiment was measured using a type-T (copper/constantan) thermocouple and an electronic thermometer (model 51 II, Fluke Corporation, Everett, Wash. USA).
After the experimental run, the oocyte was released from the holding pipette on the micromanipulator and the temperature of the medium was measured such that the thermocouple was visible in the microscope field of view, ensuring that the temperature was recorded at the exact location of the oocyte. […] The exact time of these transitions was recorded during each replication and was accounted for during the calculations to estimate the permeability parameters. […]

Rhesus macaque oocytes = details: single-step addition and removal; cited from earlier work
bovine oocytes = details: 4 or 5.5 mol/L EG in a single step; cited from earlier work
[2] = cited from earlier work; for concentration required to maintain a vitreous state during slow warming: aqueous solution with this compound as the only solute; for total solute required to maintain a vitreous state during cooling and warming: prior analysis
mouse oocytes = details: cited from earlier work
[3] = Differential scanning calorimetry of EG/sucrose/saline solutions (vitreous state during cooling and warming); type: physicochemical; details: for total concentration of the solution necessary to prevent crystallization during warming: cooling 100° C/min, warming 10° C/min; for DSC thermogram during warming: sucrose 0.3 molal with EG
Description: This experiment was designed to determine the amount of EG necessary to maintain an ice-free (i.e. vitreous) state during cooling to cryogenic temperatures ([…]; below the glass transition temperature of these solutions) and warming, when the sucrose concentration ranged from 0.1 to 1.1 molal (mol/kg; equivalent to 0.053 to 0.53 molar (mol/L)). In studies of the physical properties of solutions, components of the solutions are usually measured by weight, not volume. […] Furthermore, concentrations are usually reported in weight fractions (weight percent (w/w, or wt %)). These conventions were used in this experiment and references was made to the equivalent molar concentrations when comparing the results to previously published studies.
A Diamond Differential Scanning Calorimeter (DSC; Perkin-Elmer Waltham, Mass., USA) outfitted with an autosampler and CryoFill liquid nitrogen cooling system was employed for the thermal analysis. The solutions were composed of water (5 g) and NaCl (0.0045 g) to which various amounts of sucrose and EG were added. For this experiment, spectrophotometric grade (>99%) EG was utilized. All components were weighed on an analytical balance. Errors between the target and actual weight percent were less than 0.1% in all instances. To test the vitrification properties of the solutions, 5 μl (˜0.0055 grams) were loaded into standard 10 μl aluminum DSC pans (Perkin-Elmer Part # BO14-3015), and the pans were hermetically sealed. Embryo-grade water and HPLC-grade (>99.9% purity) cyclohexane were also run as calibration standards.
Analyses were conducted at a cooling rate of 100° C./min and a warming rate of 10° C./min to be consistent with previous studies. […] Random noise was estimated by determining the standard deviation of the actual signal from the expected value from the polynomial fit. When an apparent crystallization peak followed by a melting peak in the expected temperature range was noted, and the maximum point on the melting peak was beyond three standard deviations from the expected value, it was classified as a thermal event. Only when three independent solutions confirmed the absence of crystallization and melting was the solution classified as having achieved and maintained a vitreous state throughout the cooling and warming procedure.

OCCO [EG, ethylene glycol]
Lp (hydraulic conductivity) in the presence of EG ([1]; 6.7° C): 0.15 μm/(min·atm)
Lp (hydraulic conductivity) in the presence of EG ([1]; 35.7° C): 1.17 μm/(min·atm)
activation energy for Lp ([1]; Arrhenius plot, 95% CI 13.19 to 15.65): 14.42 kcal/mol
activation energy for Ps ([1]; Arrhenius plot, 95% CI 19.49 to 22.91): 21.20 kcal/mol
EG concentration causing membrane damage (Rhesus macaque oocytes): ≥ 3 mol/L
effect on developmental potential (bovine oocytes): significant reduction
concentration required to maintain a vitreous state during slow warming [2]: ~59 wt %
EG concentration necessary to maintain a vitreous state ([2]; cooling and warming at the DSC rates (100 and 10° C/min)): 59 wt %
EG concentration that should maintain a vitreous state ([2]; warming rate on the order of 1×10^3° C/min): 50 wt %
EG concentration that should maintain a vitreous state ([2]; warming rate on the order of 1×10^4° C/min): 48 wt %
effect on development compared to untreated oocytes (mouse oocytes; 6 mol/L EG for 5 minutes): no effect on development
reduction of developmental potential (mouse oocytes; 7 mol/L EG, 2-step exposure): 30%
mean blastocyst development rate (mouse oocytes; 8 mol/L EG, exposure less than 1 minute, controls ~62%): ~50%

OC[C@H]1O[C@@](CO)(O[C@H]2O[C@H](CO)[C@@H](O)[C@H](O)[C@H]2O)[C@@H](O)[C@@H]1O [sucrose]
total concentration of the solution necessary to prevent crystallization during warming ([3]; 0.1 mol/kg sucrose with EG in saline): 59 wt %
total concentration of the solution necessary to prevent crystallization during warming ([3]; 0.3 mol/kg sucrose with EG in saline): 59 wt %
total concentration of the solution necessary to prevent crystallization during warming ([3]; 0.5 mol/kg sucrose with EG in saline): 59 wt %
total concentration of the solution necessary to prevent crystallization during warming ([3]; 0.7 mol/kg sucrose with EG in saline): 60 wt %
total concentration of the solution necessary to prevent crystallization during warming ([3]; 0.9 mol/kg sucrose with EG in saline): 61 wt %
total concentration of the solution necessary to prevent crystallization during warming ([3]; 1.1 mol/kg sucrose with EG in saline): 61 wt %
DSC thermogram during warming ([3]; total solute 55% weight): crystallization and melting peaks
DSC thermogram during warming ([3]; total solute 59 weight %): no evidence of crystallization and melting
concentration required to maintain a vitreous state during slow warming [2]: > 70 wt %
total solute required to maintain a vitreous state during cooling and warming ([2]; sucrose 0 mol/kg with EG): 59 wt %
total solute required to maintain a vitreous state during cooling and warming ([2]; sucrose 0.1 mol/kg with EG): 60 wt %
total solute required to maintain a vitreous state during cooling and warming ([2]; sucrose 0.5 mol/kg with EG): 61 wt %
total solute required to maintain a vitreous state during cooling and warming ([2]; sucrose 1.0 mol/kg with EG): 65 wt %
